In US5160727A, “Tumor cell sensitization method using quinazolinedione derivatives” (priority 1990, dated 1992):
Structures can show the parent of a compound that is named as a salt. Where two headings read alike, the source gives them in different places.

Test system: P388R cells
Assay: Potentiation of adriamycin activity and cell growth in P388 resistant cells (Table II)
Type: cell-based, murine
Conditions: for activity at 5 µM / activity at 10 µM: Mus musculus; for Degree of ADR Potentiation in P388R: footnote a (drawing 3)
Experimental: The P388 murine leukemia cells used in obtaining the data set forth in Table I and Table II were obtained from Southern Research Institute (Birmingham, Ala.) and were cultured from ascites fluids of tumor-bearing DMA/2 mice and maintained in Fischer's medium supplemented with 10% horse serum, 10 μM 2-mercaptoethanol, and gentamycin (50 μg/mL). Cells were counted with a Model ZF Coulter Counter (Coulter Electronics, Inc., Hialeah, Fla.). Viability was determined by trypan blue exclusion. […] Cancer Inst.

[1] = P388, test compound at 5 μM, read-out: % of Control Cell Growth
[2] = P388, test compound at 10 μM, read-out: % of Control Cell Growth
[3] = test compound at 5 μM with adriamycin
[4] = test compound at 10 μM with adriamycin
[5] = P388, read-out: % of Control Cell Growth

Compound	activity at 5 µM [1] [%]	activity at 10 µM [2] [%]	Degree of ADR Potentiation in P388R [3]	Degree of ADR Potentiation in P388R [4]	activity at 5 µM [5] [%]	activity at 10 µM [5] [%]
CCCSc1ccccc1N1CCN(CCCn2c(=O)[nH]c3ccccc3c2=O)CC1.Cl [Example 2, 3-[3-[4-[2-(propylthio)phenyl]-1-piperazinyl]propyl]-2,4-(1H,3H)-quinazolinedione monohydrochloride]	89	87	13.1	22.0		
CCCSc1ccccc1N1CCN(CCCCn2c(=O)[nH]c3ccc(Cl)cc3c2=O)CC1.Cl [Example 3, 6-chloro-3-[4-[4-[2-(propylthio)phenyl]-1-piperazinyl]butyl]-2,4-(1H,3H)quinazolinedione monohydrochloride]	100	88	19.6	44.7		
Cl.O=c1[nH]c2ccccc2c(=O)n1CCCCN1CCN(c2cccc(Cl)c2Cl)CC1 [Example 4, 3-[4-[4-(2,3-dichlorophenyl)-1-piperazinyl]butyl]-2,4-(1H,3H)-quinazolinedione monohydrochloride]			21.8	31.7	76	76
CCSc1ccccc1N1CCN(CCCCn2c(=O)[nH]c3ccccc3c2=O)CC1.Cl [Example 5, 3-[4-[4-[2-(ethylthio)phenyl)-1-piperazinyl]butyl]-2,4-(1H,3H)-quinazolinedione monohydrochloride]	79	78	19.6	46.6		
CC(C)Sc1ccccc1N1CCN(CCCCn2c(=O)[nH]c3ccccc3c2=O)CC1.Cl [Example 6, 3-[4-[4-[2-[(1-methylethyl)thio]phenyl]-1-piperazinyl]butyl]-2,4-(1H,3H)-quinazolinedione monohydrochloride]	91	59	24.2	52.2		
CSc1ccccc1N1CCN(CCCCn2c(=O)[nH]c3ccccc3c2=O)CC1 [Example 7, 3-[4-[4-[2-methylthio)phenyl]-1-piperazinyl]butyl]-2,4(1H,3H)quinazolinedione monohydrochloride]	95	72	25.2	48.4		
CCCCSc1ccccc1N1CCN(CCCCn2c(=O)[nH]c3ccccc3c2=O)CC1.Cl [Example 8, 3-[4-[4-[2-(butylthio)phenyl]-1-piperazinyl]butyl]-2,4-(1H,3H)-quinazolinedione monohydrochloride]	88	86	25.0	48.4		
CCCSc1ccccc1N1CCN(CCCCn2c(=O)[nH]c3cc(Cl)ccc3c2=O)CC1.Cl [Example 9, 7-chloro-3-[4-[4-[2-(propylthio)phenyl]-1-piperazinyl]butyl]2,4(1H,3H)-quinazolinedione monohydrochloride]	100	85	22.2	35.4		
CCCSc1ccccc1N1CCN(CCCCn2c(=O)[nH]c3ccc(C)cc3c2=O)CC1.Cl [Example 10, 6-methyl-3-[4-[4[2(propylthio)phenyl]-1-piperazinyl]butyl]-2,4(1H,3H)-quinazolinedione monohydrochloride]	92	85	21.0	48.4		
CCCSc1ccccc1N1CCN(CCCCCCn2c(=O)[nH]c3ccccc3c2=O)CC1 [Example 11, 3-[6-[4-[2-(propylthio)phenyl]-1-piperazinyl]hexyl]-2,4-(1H,3H)quinazolinedione monohydrochloride, 1/3 hydrate]	99	66	73.8	52.2		
CCCSc1ccccc1N1CCN(CCCCn2c(=O)c3ccccc3n(C)c2=O)CC1 [Example 12, 1-methyl-3-[4-[4-[2-(propylthio)phenyl]-1-piperazinyl]butyl] -2,4-(1H,3H)quinazolinedione]	100	87	17.9	39.1		
CCCSc1ccccc1N1CCN(CCCCn2c(=O)[nH]c3cc(OC)c(OC)cc3c2=O)CC1 [Example 13, 6,7-dimethoxy-3-[4-[4-[2-(propylthio)phenyl]-1-piperazinyl]butyl]-2,4-(1H,3H)-quinazolinedione]	100	10.4	93.0	52.2		
CCCSc1ccccc1N1CCN(CCCCCn2c(=O)[nH]c3cc(OC)c(OC)cc3c2=O)CC1 [Example 14, 6,7-dimethoxy-3-[5-[4-[2-(propylthio)phenyl]-1-piperazinyl]pentyl]-2,4(1H,3H)-quinazolinedione]	53	1.2	65.0			
CCCSc1ccccc1N1CCN(CCCCn2c(=O)c3cc(OC)c(OC)cc3n(C)c2=O)CC1 [Example 15, 6,7-dimethoxy-1-methyl-3-[4-[4-[2-(propylthio)phenyl]-1-piperazinyl]butyl]-2,4(1H,3H)-quinazolinedione]	46	2.6	21.2			
CCCSc1ccccc1N1CCN(CCCCCn2c(=O)c3cc(OC)c(OC)cc3n(C)c2=O)CC1 [Example 16, 6,7-dimethoxy-1-methyl-3-[5-[4-[2-(propylthio)phenyl]-1-piperazinyl]pentyl]-2,4(1H,3H)-quinazolinedione]	33	4.2	44.5			
CCCSc1ccccc1N1CCN(CCCCn2c(=O)[nH]c3c(OC)cccc3c2=O)CC1 [Example 17, 8-methoxy-3-[4-[4-[2-(propylthio)phenyl]-1-piperazinyl]butyl]-2,4-(1H,3H)quinazolinedione]	83	39	3.4	67.2		
CCCSc1ccccc1N1CCN(CCCCn2c(=O)c3cccc(OC)c3n(C)c2=O)CC1.Cl [Example 18, 8-methoxy-1-methyl-3-[4-[4-[2-(propylthio)phenyl]-1-piperazinyl]butyl]-2,4-(1H,3H)quinazolinedione monohydrochloride]	100	87	21.1	24.6		
CCCSc1ccccc1N1CCN(CCCCCn2c(=O)[nH]c3ccccc3c2=O)CC1 [Example 19, 3-[5-[4-[2-(propylthio)phenyl]-1-piperazinyl]pentyl]-2,4-(1H,3H)-quinazolinedione]	100	68	36.7	66.9		
